This assay deals with (Homo sapiens, UniProt P43220). Nature of the assay: h-GLP-1 activity assay (cAMP HTRF, HEK293 cells with stable expression of human GLP-1). It counts as cell-based. The settings on record: relative EC50, 10 nM human GLP-1 set as 100% response, 30 min at 37° C. The procedure:
Human GLP-1 agonizing activity was detected in HEK293 cells with stable expression of human GLP-1 by Cisbio cAMP Gs dynamic kit (Catalog #62AM4PEC) according to manufacturer's protocol. Briefly, cells were collected and resuspended in assay buffer containing 0.1% BSA and 0.5 mM of IBMX at concentration to 2.5×10^5 cells/mL. Two μL 5× compound solution and 8 μL cell suspension were added to each well of low-volume 384 white assay plate. After 30 min incubation at 37° C., 5 μL cAMP-d2 working solution and 5 μL anti-cAMP antibody-cryptate were added to each well, and incubate at room temperature for 1 hr. Series dilution of cAMP was used as standard. Human GLP-1 (7-37) was used as positive control and 10 nM human GLP-1 was set as 100% response. HTRF signals were read at 665 and 615 nm with EnVision plate reader and calculated cAMP concentration by interpolation to the standard curve. The EC50 value of the tested compounds was calculated by fitting the dose response curve using a 4-parameter non-linear regression routine and relative EC50 was presented in Table 29.

The record followed here is US12037339B2, “Substituted imidazoles as GLP-1 receptor agonists” (Eccogene Inc., priority 2020, dated 2024).

A value given as a limit tells only on which side of the number the result lay.

Sequence of (Homo sapiens, UniProt P43220) (P43220 24-463): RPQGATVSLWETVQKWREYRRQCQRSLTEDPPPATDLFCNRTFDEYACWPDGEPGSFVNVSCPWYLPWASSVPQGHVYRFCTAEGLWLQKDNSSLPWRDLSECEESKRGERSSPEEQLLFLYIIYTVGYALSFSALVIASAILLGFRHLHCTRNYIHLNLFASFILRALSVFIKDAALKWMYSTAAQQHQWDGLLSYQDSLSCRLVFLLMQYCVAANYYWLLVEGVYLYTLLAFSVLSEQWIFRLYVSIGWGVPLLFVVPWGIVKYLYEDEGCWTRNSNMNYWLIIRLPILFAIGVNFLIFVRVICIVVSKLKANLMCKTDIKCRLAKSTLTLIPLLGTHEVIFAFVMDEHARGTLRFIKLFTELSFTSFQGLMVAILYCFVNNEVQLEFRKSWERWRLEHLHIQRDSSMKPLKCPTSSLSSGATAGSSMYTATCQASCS

Take `C[C@H]1c2c(-n3ccn(-c4ccc5c(cnn5C)c4F)c3=O)c(-c3ccc(F)cc3)nn2CCN1C(=O)c1cc2cc([C@H]3CCOC(C)(C)C3)ccc2n1C1(c2noc(=O)[nH]2)CC1` (single isomer, unassigned) [Compound 31]: the EC50 is above 100 nM.

`C[C@H]1c2c(nn(-c3ccc(F)c(C4CC4)c3)c2-n2ccn(-c3ccc4c(cnn4C)c3F)c2=O)CCN1C(=O)c1cc2cc([C@H]3CCOC(C)(C)C3)c(F)cn2c1C1(c2noc(=O)[nH]2)CC1` (single isomer, unassigned) [Compound 93] registered an EC50 below 20 nM.

For `Cc1cc(-n2nc3c(c2-n2ccn(-c4ccn5cncc5c4)c2=O)[C@H](C)N(C(=O)c2cn4cc([C@H]5CCOC(C)(C)C5)ccc4c2C2(c4noc(=O)[nH]4)CC2)CC3)cc(C)c1F` (single isomer, unassigned) [Compound 16], the EC50 lay within 20 to 100 nM.

Compound `Cc1cc(-n2nc3c(c2-n2ccn(-c4ccc5c(cnn5C)c4F)c2=O)[C@H](C)N(C(=O)c2cc4cc(C5CCOC(C)(C)C5)ccc4n2C2(CNS(C)(=O)=O)CC2)CC3)cc(C)c1F` (mixture of isomers) [Compound 64, N-((1-(5-(2,2-dimethyltetrahydro-2H-pyran-4-yl)-2-((S)-3-(3-(4-fluoro-1-methyl-1H-indazol-5-yl)-2-oxo-2,3-dihydro-1H-imidazol-1-yl)-2-(4-fluoro-3,5-dimethylphenyl)-4-methyl-4,5,6,7-tetrahydro-2H-pyrazolo[4,3-c]pyridine-5-carbonyl)-1H-indol-1-yl)cyclopropyl)methyl)methanesulfonamide] gave a half-maximal effective concentration (EC50) above 100 nM.

Regarding `C[C@H]1c2c(nn([C@@H](C)c3ccc(F)cc3)c2-n2ccn(-c3ccc4c(cnn4C)c3F)c2=O)CCN1C(=O)c1cc2cc([C@@H]3CCOC(C)(C)C3)ccc2n1C1(c2noc(=O)[nH]2)CC1` (single isomer, unassigned) [Compound 40], the EC50 was below 20 nM.

With `Cc1cc(-n2nc3c(c2-n2ccn(-c4ccc5c(cnn5C)c4F)c2=O)[C@H](C)N(C(=O)c2cn4cc(-c5ccnc(C(F)(F)F)c5)ccc4c2Cc2noc(=O)[nH]2)CC3)cc(C)c1F` [Compound 15, (S)-3-((2-(3-(3-(4-fluoro-1-methyl-1H-indazol-5-yl)-2-oxo-2,3-dihydro-1H-imidazol-1-yl)-2-(4-fluoro-3,5-dimethylphenyl)-4-methyl-4,5,6,7-tetrahydro-2H-pyrazolo[4,3-c]pyridine-5-carbonyl)-6-(2-(trifluoromethyl)pyridin-4-yl)indolizin-1-yl)methyl)-1,2,4-oxadiazol-5(4H)-one], the EC50 was below 20 nM.

Compound `COCC12CCC(n3ccn(-c4c(-c5ccc(F)cc5)nn5c4[C@H](C)N(C(=O)c4cc6cc(C7CCOCC7)ccc6n4Cc4noc(=O)[nH]4)CC5)c3=O)(CC1)CC2` (single isomer, unassigned) [Compound 53] yielded a half-maximal effective concentration (EC50) above 100 nM.

Turning to `COCC12CCC(n3ccn(-c4c(-c5ccc(F)cc5)nn5c4[C@H](C)N(C(=O)c4cc6cc([C@@H]7CCOC(C)(C)C7)ccc6n4[C@@]4(c6noc(=O)[nH]6)C[C@@H]4C)CC5)c3=O)(CC1)CC2` (single isomer, unassigned) [Compound 62], the EC50 was in the range of 20 to 100 nM.

The compound `Cc1cc(-c2nn3c(c2-n2ccn(-c4ccc5c(cnn5C)c4F)c2=O)[C@H](C)N(C(=O)c2cc4cc([C@@H]5CCOC(C)(C)C5)ccc4n2C2(c4noc(=O)[nH]4)CC2)CC3)ccc1F` (single isomer, unassigned) [Compound 26] returned a concentration giving a half-maximal response (EC50) below 20 nM.

Consider `Cc1cc(-n2nc3c(c2-n2ccn(-c4ccc5c(cnn5C)c4F)c2=O)[C@H](C)N(C(=O)c2cc4cc(C5CCOC(C)(C)C5)ccc4n2-c2ccccc2C(=O)O)CC3)cc(C)c1F` (mixture of isomers) [Compound 54, 2-(5-(2,2-dimethyltetrahydro-2H-pyran-4-yl)-2-((S)-3-(3-(4-fluoro-1-methyl-1H-indazol-5-yl)-2-oxo-2,3-dihydro-1H-imidazol-1-yl)-2-(4-fluoro-3,5-dimethylphenyl)-4-methyl-4,5,6,7-tetrahydro-2H-pyrazolo[4,3-c]pyridine-5-carbonyl)-1H-indol-1-yl)benzoic acid], for which the concentration for a half-maximal effect (EC50) was below 20 nM.

Consider `C[C@H]1c2c(nn(-c3ccc(F)c(OC(F)(F)F)c3)c2-n2ccn(-c3ccc4c(cnn4C)c3F)c2=O)CCN1C(=O)c1cn2cc([C@@H]3CCOC(C)(C)C3)ccc2c1C1(c2noc(=O)[nH]2)CC1` (single isomer, unassigned) [Compound 80], for which the EC50 was below 20 nM.

`C[C@H]1c2c(nn(-c3ccc(F)c(C4CC4)c3)c2-n2ccn(-c3ccc4c(cnn4C)c3F)c2=O)CCN1C(=O)c1c(Cl)c2cc([C@@H]3CCOC(C)(C)C3)ccn2c1C1(c2noc(=O)[nH]2)CC1` (single isomer, unassigned) [Compound 88] had a 50% effective concentration (EC50) above 100 nM.

Consider `Cc1cc(-n2nc3c(c2-n2ccn(-c4ccc5c(cnn5C)c4F)c2=O)[C@H](C)N(C(=O)c2cn4cc([C@@H]5CCOC(C)(C)C5)ccc4c2C2(c4noc(=O)[nH]4)CC2)CC3)ccc1F` (single isomer, unassigned) [Compound 13], for which the half-maximal effective concentration (EC50) was below 20 nM.

Compound `Cc1cc(-n2nc3c(c2-n2ccn(-c4ccc5c(cnn5C)c4F)c2=O)[C@H](C)N(C(=O)c2cn4cc([C@H]5CCOC(C)(C)C5)ccc4c2[C@@]2(c4noc(=O)[nH]4)C[C@@H]2C)CC3)cc(C)c1F` (single isomer, unassigned) [Compound 4] had an EC50 of 20 to 100 nM.

`Cc1cc(-n2nc3c(c2-n2ccn(-c4ccc5c(cnn5C)c4F)c2=O)[C@H](C)N(C(=O)c2cc4cc([C@@H]5CCOC(C)(C)C5)ccn4c2C2(c4noc(=O)[nH]4)CC2)CC3)ccc1F` (single isomer, unassigned) [Compound 77]: the EC50 was below 20 nM.

With `Cc1cc(-n2nc3c(c2-n2ccn(-c4ccc5c(cnn5C)c4F)c2=O)[C@H](C)N(C(=O)c2cn4cc([C@@H]5CCOC(C)(C)C5)ccc4c2Cc2noc(=O)[nH]2)CC3)cc(C)c1F` (single isomer, unassigned) [Compound 21], the EC50 is below 20 nM.

Consider `Cc1cc(-c2nn3c(c2-n2ccn(-c4ccc5c(cnn5C)c4F)c2=O)[C@@H](C)N(C(=O)c2cc4cc([C@@H]5CCOC(C)(C)C5)ccc4n2C2(c4noc(=O)[nH]4)CC2)CC3)cc(C)c1F` (single isomer, unassigned) [Compound 24], for which the half-maximal effective concentration (EC50) was below 20 nM.

In the case of `COCC12CCC(n3ccn(-c4c(-c5ccc(F)cc5)nn5c4[C@H](C)N(C(=O)c4cc6cc([C@@H]7CCOC(C)(C)C7)ccc6n4C4(c6noc(=O)[nH]6)CC4)CC5)c3=O)(CC1)CC2` (single isomer, unassigned) [Compound 29], the EC50 was in the range of 20 to 100 nM.

For `C[C@H]1c2c(-n3ccn(-c4ccc5c(cnn5C)c4F)c3=O)c(-c3ccc(F)cc3)nn2CCN1C(=O)c1cc2cc([C@@H]3CCOC(C)(C)C3)ccc2n1C1(c2noc(=O)[nH]2)CC1` (single isomer, unassigned) [Compound 33], the EC50 was below 20 nM.

As to `C[C@H]1c2c(nn(-c3ccc(F)c(C4CC4)c3)c2-n2ccn(-c3ccc4c(cnn4C)c3F)c2=O)CCN1C(=O)c1nc2cc([C@H]3CCOC(C)(C)C3)ccn2c1C1(c2noc(=O)[nH]2)CC1` (single isomer, unassigned) [Compound 97], the half-maximal effective concentration (EC50) is above 100 nM.

The compound `C[C@H]1c2c(-n3ccn(-c4ccc5c(cnn5C)c4F)c3=O)c(-c3ccc(F)c(Cl)c3)nn2CCN1C(=O)c1cc2cc([C@@H]3CCOC(C)(C)C3)ccc2n1C1(c2noc(=O)[nH]2)CC1` (single isomer, unassigned) [Compound 50] yielded an EC50 above 100 nM.

`Cc1cc(-n2nc3c(c2-n2ccn(-c4ccc5c(cnn5C)c4F)c2=O)CN(C(=O)c2cc4cc(C5CCOC(C)(C)C5)ccc4n2Cc2cc(O)no2)CC3)cc(C)c1F` (racemic) [Compound 36, 1-(5-(5-(2,2-dimethyltetrahydro-2H-pyran-4-yl)-1-((3-hydroxyisoxazol-5-yl)methyl)-1H-indole-2-carbonyl)-2-(4-fluoro-3,5-dimethylphenyl)-4,5,6,7-tetrahydro-2H-pyrazolo[4,3-c]pyridin-3-yl)-3-(4-fluoro-1-methyl-1H-indazol-5-yl)-1,3-dihydro-2H-imidazol-2-one]: the EC50 is above 100 nM.

The compound `Cc1cc(-n2nc3c(c2-n2ccn(-c4ccc5c(cnn5C)c4F)c2=O)[C@H](C)N(C(=O)c2cc4cc(C5CCOCC5)ccc4n2-c2cccc(C(=O)O)c2)CC3)cc(C)c1F` [Compound 56, (S)-3-(2-(3-(3-(4-fluoro-1-methyl-1H-indazol-5-yl)-2-oxo-2,3-dihydro-1H-imidazol-1-yl)-2-(4-fluoro-3,5-dimethylphenyl)-4-methyl-4,5,6,7-tetrahydro-2H-pyrazolo[4,3-c]pyridine-5-carbonyl)-5-(tetrahydro-2H-pyran-4-yl)-1H-indol-1-yl)benzoic acid] returned an EC50 below 20 nM.

In the case of `Cc1cc(-n2nc3c(c2-n2ccn(-c4ccc5c(cnn5C)c4F)c2=O)[C@H](C)N(C(=O)c2cn4cc([C@H]5CCOC(C)(C)C5)ccc4c2C2(c4noc(=O)[nH]4)CC2)CC3)cc(C)c1F` (single isomer, unassigned) [Compound 20], the EC50 lay in the range of 20 to 100 nM.

`C[C@H]1c2c(nn(-c3ccc(F)c(C4CC4)c3)c2-n2ccn(-c3ccc4c(cnn4C)c3F)c2=O)CCN1C(=O)c1nn2cc([C@@H]3CCOC(C)(C)C3)ccc2c1C1(c2noc(=O)[nH]2)CC1` (single isomer, unassigned) [Compound 84]: the EC50 is below 20 nM.

Consider `COCC12CCC(n3ccn(-c4c(-c5ccc(F)cc5)nn5c4[C@H](C)N(C(=O)c4cc6cc([C@H]7CCOC(C)(C)C7)ccc6n4[C@@]4(c6noc(=O)[nH]6)C[C@@H]4C)CC5)c3=O)(CC1)CC2` (single isomer, unassigned) [Compound 63], for which the concentration giving a half-maximal response (EC50) is above 100 nM.

What is called EC50 is the concentration at which the effect is half-maximal. A lower EC50 goes with a more potent agent.
